According to patent US20230183179A1, “NOVEL CELL METABOLISM MODULATING COMPOUNDS AND USES THEREOF” (CRESCENTA BIOSCIENCES, priority 2020, published 2023):

Columns and labels:
[1] = biological target: T1, His6 tagged human recombinant FABP4 (Homo sapiens, UniProt P15090); test: FABP4 TR-FRET assay: displacement of fluorescent fatty acid BODIPY FL C12; conditions: inhibition of BODIPY FL C12 binding to His6-FABP4; 1.2 μL of 1.085 mM compound in DMSO per well; triplicates, mean percent inhibition
T1 construct: purchased Cayman Chemicals 10009549
Description: Activity of compounds with FABP4 was profiled using a Terbium (Tb) based time resolved fluorescence energy transfer (TR-FRET) assay. The assay measures the compound mediated displacement of the fluorescent fatty acid BODIPY FL C12 (Thermo Fisher; catalog number D3822) from His6 tagged human recombinant FABP4 (His6-FABP4; Cayman Chemicals, catalog number 10009549) via recording the energy transfer from TB donor molecule on anti-His6-tag antibody to acceptor BODIPY moiety. Briefly, compounds and BODIPY FL C12 were prepared at a concentration of 1.085 mM and 4.2 μM, respectively, in DMSO. 1.2 μL of each compound or DMSO (vehicle control) and 1.2 μL of BODIPY FL C12 were added into the wells of a 384-well black polypropylene plate. His6-FABP4 and Tb anti-His6 antibody were prepared in the assay buffer (25 mM Tris/HCl, pH 7.4, 0.4 mg/ml γ-globulins, 0.010% NP-40, 1 mM DTT) at a concentration of 83 nM and 49.6 nM, respectively. The protein and antibody solutions were then mixed at a ratio of 34:7 (v/v) and incubated on ice for 30 minutes. The assay was initiated by adding 41 μL of the resulting protein/antibody solution into the wells containing the compounds and BODIPY FL C12. The plate was centrifuged and incubated at room temperature for 10 min. The TR-FRET signals were recorded using an EnVision Multilabel plate reader (PerkinElmer; TB excitation 320 nm, BODIPY FL C12 emission 520 nm; TB emission 615 nm). Relative fluorescence ratio (520 nm*10,000/615 nm) were used to calculate the compound mediated inhibition of BODIPY C12 FL fatty acid binding to FABP4. The compounds were tested in triplicates and the results were represented as mean percent inhibition (compound*100/DMSO)±standard deviation (SD). Glucose consumption and FABP4 inhibition is shown below in Table 3 below. The compounds showing no inhibition of activity in the TR-FRET assay are marked as N.A. N.D. stands for “not determined”.

[2] = tested on: differentiated 3T3-L1 mouse adipocyte cells; test: Adipocyte glucose consumption in differentiated 3T3-L1 cells (colorimetric glucose assay of the medium); type: cell-based; conditions: 3T3-L1, 24 h, compound 10 μM, loss of glucose from culture medium, mean fold change (compound/DMSO)
Experimental: Activity of compounds on adipocyte glucose consumption was tested in differentiated 3T3-L1 mouse adipocyte cells. 3T3-L1 preadipocytes (ATCC) were routinely cultured in a growth medium composed of DMEM high-glucose (Sigma), 10% FBS (Gibco), 10 U/ml penicillin and 10 μg/ml streptomycin (P/S; Gibco). To induce adipogenic differentiation, a confluent layer of 3T3-L1 cells were incubated with the growth medium containing 2 μM rosiglitazone, 1 μM dexamethasone, 500 μM IBMX, and 1 μg/ml insulin (Sigma). Forty-eight (48) hours later (on day 2) and on days 4 and 6, medium of the cells was replaced with fresh medium containing 1 μg/ml insulin. On days 8 and 10, the medium was refreshed with regular growth medium and addition of insulin was omitted. On day 11, medium of the cells were 10 replaced with fresh medium containing either the indicated compounds (10 μM) or the vehicle in which the compounds were dissolved (DMSO). The final concentration of DMSO was 0.1% (v/v). Growth medium containing 0.1% DMSO was incubated in culture wells containing no cells and used as control. 24 hours later, medium was harvested and subjected to centrifugation at 10,000 g for 5 min. Glucose concentration in the supernatants was determined using a 15 colorimetric assay (Glucose Assay Kit I, Eton Biosciences). Glucose consumption in compound and vehicle treated cells was measured as loss of glucose from the culture medium and represented as mean fold change (compound/DMSO)±standard deviation (SD).

T1 sequence (P15090 whole entry): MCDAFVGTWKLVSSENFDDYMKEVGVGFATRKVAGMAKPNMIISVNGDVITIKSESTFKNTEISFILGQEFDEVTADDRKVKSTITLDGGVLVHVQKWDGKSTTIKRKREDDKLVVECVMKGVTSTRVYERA

SMILES | inhibition at 1085 µM (stock) [1] | fold induction at 10 µM [2]
CN(CC(=O)O)c1cc(-c2ccccc2)c2cc(CCc3cccc(Cl)c3)ccc2n1 [2-({6-[2-(3-chlorophenyl)ethyl]-4-phenylquinolin-2-yl}(methyl)amino)acetic acid] | 57.1% | 1.47
COc1cccc(CCc2ccc3nc(N(C)CC(=O)O)cc(-c4ccccc4)c3c2)c1 [2-({6-[2-(3-methoxyphenyl)ethyl]-4-phenylquinolin-2-yl}(methyl)amino)acetic acid] | 93.2% | 1.31
CN(CC(=O)O)c1cc(-c2ccccc2)c2cc(CCc3ccc(Cl)cc3)ccc2n1 [2-({6-[2-(4-chlorophenyl)ethyl]-4-phenylquinolin-2-yl}(methyl)amino)acetic acid] | 56.4% | 1.43
COc1ccc(CCc2ccc3nc(N(C)CC(=O)O)cc(-c4ccccc4)c3c2)cc1 [2-({6-[2-(4-methoxyphenyl)ethyl]-4-phenylquinolin-2-yl}(methyl)amino)acetic acid] | 15% | 1.26
CCCc1ccc2nc(OCC(=O)O)cc(-c3ccccc3)c2c1 [2-[(4-phenyl-6-propylquinolin-2-yl)oxy]acetic acid] | 33.8% | 0.99
CN(CC(=O)O)c1cc(-c2ccccc2)c2cc(Br)ccc2n1 [2-[(6-bromo-4-phenylquinolin-2-yl)(methyl)amino]acetic acid] | 109% | 1.26
O=C(O)COc1cc(-c2ccccc2)c2cc(Br)ccc2n1 [2-[(6-bromo-4-phenylquinolin-2-yl)oxy]acetic acid] | 35% | 1.01
CCCCc1ccc2nc(OCC(=O)O)cc(-c3ccccc3)c2c1 [2-[(6-butyl-4-phenylquinolin-2-yl)oxy]acetic acid] | 11.3% | 1.12
CN(CC(=O)O)c1cc(-c2ccccc2)c2cc(Cl)ccc2n1 [2-[(6-chloro-4-phenylquinolin-2-yl)(methyl)amino]acetic acid] | 99.7% | 1.14
CC(C(=O)O)N(C)c1cc(-c2ccccc2)c2cc(Cl)ccc2n1 (stereo not shown) [2-[(6-chloro-4-phenylquinolin-2-yl)(methyl)amino]propanoic acid] | 97.4% | 1.18
O=C(O)COc1cc(-c2ccccc2)c2cc(Cl)ccc2n1 [2-[(6-chloro-4-phenylquinolin-2-yl)oxy]acetic acid] | 34.4% | 1.1
CCc1ccc2nc(N(C)CC(=O)O)cc(-c3ccccc3)c2c1 [2-[(6-ethyl-4-phenylquinolin-2-yl)(methyl)amino]acetic acid] | 103% | 1.12
CCc1ccc2nc(OCC(=O)O)cc(-c3ccccc3)c2c1 [2-[(6-ethyl-4-phenylquinolin-2-yl)oxy]acetic acid] | 31.9% | 0.97
CCCCCCC1CCc2nc(N(C)CC(=O)O)cc(-c3ccccc3)c2C1 (stereo not shown) [2-[(6-hexyl-4-phenyl-5,6,7,8-tetrahydroquinolin-2-yl)(methyl)amino]acetic acid] | 64.5% | 1.34
CCCCCCc1ccc2nc(N(C)CC(=O)O)cc(-c3ccccc3)c2c1 [2-[(6-hexyl-4-phenylquinolin-2-yl)(methyl)amino]acetic acid] | 88.2% | 1.41
CCCCCCc1ccc2nc(N(C)CC(=O)O)ccc2c1 [2-[(6-hexylquinolin-2-yl)(methyl)amino]acetic acid] | 53.3% | 1.15

SMILES | inhibition at 1085 µM (stock) [1] | fold induction at 10 µM [2]
COc1ccc2nc(N(C)CC(=O)O)cc(-c3ccccc3)c2c1 [2-[(6-methoxy-4-phenylquinolin-2-yl)(methyl)amino]acetic acid] | 101% | 1.12
CCCCCc1ccc2nc(OCC(=O)O)cc(-c3ccccc3)c2c1 [2-[(6-pentyl-4-phenylquinolin-2-yl)oxy]acetic acid] | 55.1% | 1.05
CN(CC(=O)O)c1cc(-c2ccccc2)c2ccc(Br)cc2n1 [2-[(7-bromo-4-phenylquinolin-2-yl)(methyl)amino]acetic acid] | 84.5% | 1.19
CCCCCCc1ccc2c(-c3ccccc3)cc(N(C)CC(=O)O)nc2c1 [2-[(7-hexyl-4-phenylquinolin-2-yl)(methyl)amino]acetic acid] | 25.3% | 1.26
CCCc1ccc2nc(N(C)CC(=O)O)cc(-c3ccccc3)c2c1 [2-[methyl(4-phenyl-6-propylquinolin-2-yl)amino]acetic acid] | 104% | 1.36
CCCCCCCCc1ccc2nc(N(C)CC(=O)O)cc(-c3ccccc3)c2c1 [2-[methyl(6-octyl-4-phenylquinolin-2-yl)amino]acetic acid] | 99.3% | 1.52
CCCCC(=O)Nc1ccc2nc(N(C)CC(=O)O)cc(-c3ccccc3)c2c1 [2-[methyl(6-pentanamido-4-phenylquinolin-2-yl)amino]acetic acid] | 28.7% | 0.98
CCCCCc1ccc2nc(N(C)CC(=O)O)cc(-c3ccccc3)c2c1 [2-[methyl(6-pentyl-4-phenylquinolin-2-yl)amino]acetic acid] | 90.5% | 1.32
CN(CCc1ccc2nc(N(C)CC(=O)O)cc(-c3ccccc3)c2c1)c1ccccc1 [2-[methyl(6-{2-[methyl(phenyl)amino]ethyl}-4-phenylquinolin-2-yl)amino]acetic acid] | 55.9% | 1.17
CN(CC(=O)O)c1cc(-c2ccccc2)c2cc(CCc3ccc4c(c3)CCCN4)ccc2n1 [2-[methyl({4-phenyl-6-[2-(1,2,3,4-tetrahydroquinolin-6-yl)ethyl]quinolin-2-yl})amino]acetic acid] | 44.7% | 1.31
CN(CC(=O)O)c1cc(-c2ccccc2)c2cc(CCC3CNc4ccccc4N3)ccc2n1 (stereo not shown) [2-[methyl({4-phenyl-6-[2-(1,2,3,4-tetrahydroquinoxalin-2-yl)ethyl]quinolin-2-yl})amino]acetic acid] | 14.9% | 1.26
CN(CC(=O)O)c1cc(-c2ccccc2)c2cc(CCN3CCCCC3)ccc2n1 [2-[methyl({4-phenyl-6-[2-(piperidin-1-yl)ethyl]quinolin-2-yl})amino]acetic acid] | < 0% | 0.96
CN(CC(=O)O)c1cc(-c2ccccc2)c2cc(CCc3cnccn3)ccc2n1 [2-[methyl({4-phenyl-6-[2-(pyrazin-2-yl)ethyl]quinolin-2-yl})amino]acetic acid] | 4.98% | 1.28
CN(CC(=O)O)c1cc(-c2ccccc2)c2cc(CCc3cccnc3)ccc2n1 [2-[methyl({4-phenyl-6-[2-(pyridin-3-yl)ethyl]quinolin-2-yl})amino]acetic acid] | 32% | 1.41
CN(CC(=O)O)c1cc(-c2ccccc2)c2cc(CCc3ccncc3)ccc2n1 [2-[methyl({4-phenyl-6-[2-(pyridin-4-yl)ethyl]quinolin-2-yl})amino]acetic acid] | < 0% | 1.26
CN(CC(=O)O)c1cc(-c2ccccc2)c2cc(CCc3ncccn3)ccc2n1 [2-[methyl({4-phenyl-6-[2-(pyrimidin-2-yl)ethyl]quinolin-2-yl})amino]acetic acid] | < 0% | 1.35
